Measured values: patent US7053107B2, “Indazole compounds and pharmaceutical compositions for inhibiting protein kinases, and methods for their use” (Agouron Pharmaceuticals, Inc., priority 2002, dated 2006)
pIC50: −log10 of the molar value. Like-named read-outs stand apart in the source and are kept apart here.

What was measured:
Mouse PK Assay = assay type: in vivo; conditions: female, B6, plasma
Description: The pharmacokinetics (e.g., absorption and elimination) of drugs in mice were analyzed using the following experiment. Test compounds were formulated as a solution or suspension in a 30:70 (PEG 400: acidified H2O) vehicle or as a suspension in 0.5% CMC. This was administered orally (p.o.) and intraperitoneally (i.p.) at variable doses to two distinct groups (n=4) of B6 female mice. Blood samples were collected via an orbital bleed at time points: 0 hour (pre-dose), 0.5 h, 1.0 h, 2.0 h, and 4.0 h, and 7.0 h post dose. Plasma was obtained from each sample by centrifugation at 2500 rpm for 5 min. Test compound was extracted from the plasma by an organic protein precipitation method. For each time bleed 50 μL of plasma was combined with 1.0 mL of acetonitrile, vortexed for 2 min. and then spun at 4000 rpm for 15 min. to precipitate the protein and extract out the test compound. […] Test-compound plasma concentrations (μg/mL) were determined by a comparison to standard curve (peak area vs. conc. μg/mL) using known concentrations of test compound extracted from plasma samples in the manner described above. […] The quantitated test samples were plotted for visual display using Kalidagraph software and their pharmacokinetic parameters were determined using WIN NONLIN software. […]

[1] = molecular target: T1, unphosphorylated VEGF-R2Δ50 (Homo sapiens, UniProt P35968, DEL940-989/E990V); experiment: VEGF-R2 coupled spectrophotometric assay, unphosphorylated construct (FLVK); assay type: biochemical; conditions: % inhibition at 50 nM compound; read-out: FLVK Ki % inh @ 50 nM
T1 construct: VEGF-R2Δ50 contains residues 806–939 and 990–1171; made in house; host or cells: baculovirus/insect cell system
T1 sequence (P35968 with tags, fused parts or gaps DEL940-989/E990V limits assumed): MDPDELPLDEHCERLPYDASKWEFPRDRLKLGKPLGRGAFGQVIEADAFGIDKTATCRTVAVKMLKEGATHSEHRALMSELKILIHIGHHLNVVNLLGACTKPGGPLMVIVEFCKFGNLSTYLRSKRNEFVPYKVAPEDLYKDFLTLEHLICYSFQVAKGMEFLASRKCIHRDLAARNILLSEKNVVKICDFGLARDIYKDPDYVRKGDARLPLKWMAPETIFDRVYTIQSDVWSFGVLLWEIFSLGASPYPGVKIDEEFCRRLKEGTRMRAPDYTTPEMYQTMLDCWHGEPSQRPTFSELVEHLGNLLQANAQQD
Source text: This construct determines the ability of a test compound to inhibit tyrosine kinase activity. A construct (VEGF-R2Δ50) of the cytosolic domain of human vascular endothelial growth factor receptor 2 (VEGF-R2) lacking the 50 central residues of the 68 residues of the kinase insert domain was expressed in a baculovirus/insect cell system. Of the 1356 residues of full-length VEGF-R2, VEGF-R2Δ50 contains residues 806–939 and 990–1171, and also one point mutation (E99OV) within the kinase insert domain relative to wild-type VEGF-R2. Autophosphorylation of the purified construct was performed by incubation of the enzyme at a concentration of 4 μM in the presence of 3 mM ATP and 40 mM MgCl2 in 100 mM HEPES, pH 7.5, containing 5% glycerol and 5 mM DTT, at 4° C. for 2 h. […] See Parast et al., Biochemistry, 37,16788–16801 (1998).
(§1) The production of ADP from ATP that accompanies phosphoryl transfer was coupled to oxidation of NADH using phosphoenolpyruvate (PEP) and a system having pyruvate kinase (PK) and lactic dehydrogenase (LDH). The oxidation of NADH was monitored by following the decrease of absorbance at 340 nm (e340=6.22 cm^−1 mM^−1) using a Beckman DU 650 spectrophotometer. Assay conditions for phosphorylated VEGF-R2A50 (indicated as FLVK-P in the tables below) were the following: 1 mM PEP; 250 μM NADH; 50 units of LDH/mL; 20 units of PK/mL; 5 mM DTT; 5.1 mM poly(E4Y1); 1 mM ATP; and 25 mM MgCl2 in 200 mM HEPES, pH 7.5. Assay conditions for unphosphorylated VEGF-R2Δ50 (indicated as FLVK in the tables) were the following: 1 mM PEP; 250 μM NADH; 50 units of LDH/mL; 20 units of PK/mL; 5 mM DTT; […]; 3 mM ATP; and 60 mM MgCl2 and 2 mM MnCl2 in 200 mM HEPES, pH 7.5. Assays were initiated with 5 to 40 nM of enzyme. Ki values were determined by measuring enzyme activity in the presence of varying concentrations of test compounds. The data were analyzed using Enzyme Kinetic and Kaleidagraph software.

LCK = molecular target: T2, LCK (Homo sapiens, UniProt P06239, C224D/P223M); experiment: Lymphocyte-Specific Protein-Tyrosine Kinase (LCK) spectrophotometric assay; assay type: biochemical; conditions: 1 μM compound; read-out: LckP* % inhibit @1 μM
T2 construct: starting from amino acid residue 223 to the end of the protein at residue 509; made in house; host or cells: insect cells
T2 sequence (P06239 223-509 P223M/C224D): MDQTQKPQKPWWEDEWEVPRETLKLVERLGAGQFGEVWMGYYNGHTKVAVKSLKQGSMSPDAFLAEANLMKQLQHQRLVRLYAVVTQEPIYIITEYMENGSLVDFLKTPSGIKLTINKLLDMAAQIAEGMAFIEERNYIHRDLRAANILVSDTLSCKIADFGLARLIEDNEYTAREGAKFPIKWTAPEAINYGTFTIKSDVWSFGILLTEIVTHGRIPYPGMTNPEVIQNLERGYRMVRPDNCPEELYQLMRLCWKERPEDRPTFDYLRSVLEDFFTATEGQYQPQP

FGF-R1 = molecular target: T3, FGF-R1 (Homo sapiens, UniProt P11362, C488A/C584S/L457V); experiment: Fibroblast Growth Factor (FGF-R) spectrophotometric assay; assay type: biochemical; conditions: 1 μM compound; read-out: FGF-P % inhibit @1 μM
T3 construct: starting from the endogenous methionine residue 456 to glutamate 766; made in house; host or cells: baculovirus vector expression system
T3 sequence (P11362 456-766 L457V/C488A/C584S): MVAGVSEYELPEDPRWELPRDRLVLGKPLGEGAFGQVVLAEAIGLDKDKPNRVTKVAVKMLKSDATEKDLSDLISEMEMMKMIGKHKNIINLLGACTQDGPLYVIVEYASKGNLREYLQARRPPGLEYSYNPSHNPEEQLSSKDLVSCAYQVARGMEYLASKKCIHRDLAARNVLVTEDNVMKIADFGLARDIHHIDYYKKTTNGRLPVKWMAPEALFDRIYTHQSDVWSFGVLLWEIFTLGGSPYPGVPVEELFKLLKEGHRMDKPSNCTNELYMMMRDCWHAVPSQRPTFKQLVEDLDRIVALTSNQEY
Source text: The intracellular kinase domain of human FGF-R1 was expressed using the baculovirus vector expression system starting from the endogenous methionine residue 456 to glutamate 766, according to the residue numbering system of Mohammadi et al., Mol. Cell. Biol., 16, 977–989 (1996). In addition, the construct also has the following 3 amino acid substitutions: L457V, C488A, and C584S.
as §1
The spectrophotometric assay was carried out as described above for VEGF-R2, except for the following changes in concentration: FGF-R=50 nM, ATP=2 mM, and poly(E4Y1)=15 mM.

[2] = system: human umbilical vein endothelial cells (HUVEC); experiment: HUVEC Proliferation Assay (VEGF-stimulated); assay type: cell-based
Description: (§2) This assay determines the ability of a test compound to inhibit the growth factor-stimulated proliferation of human umbilical vein endothelial cells (“HUVEC”). HUVEC cells (passage 3–4, Clonetics, Corp.) were thawed into EGM2 culture medium (Clonetics Corp) in T75 flasks. Fresh EGM2 medium was added to the flasks 24 hours later. Four or five days later, cells were exposed to another culture medium (F12K medium supplemented with 10% fetal bovine serum (FBS), 60 μg/mL endothelial cell growth supplement (ECGS), and 0.1 mg/mL heparin). Exponentially-growing HUVEC cells were used in experiments thereafter. Ten to twelve thousand HUVEC cells were plated in 96-well dishes in 100 μl of rich, culture medium (described above). The cells were allowed to attach for 24 hours in this medium. The medium was then removed by aspiration and 105 μl of starvation media (F12K+1% FBS) was added to each well. After 24 hours, 15 μl of test agent dissolved in 1% DMSO in starvation medium or this vehicle alone was added into each treatment well; the final DMSO concentration was 0.1%. One hour later, 30 μl of VEGF (30 ng/mL) in starvation media was added to all wells except those containing untreated controls; the final VEGF concentration was 6 ng/mL. Cellular proliferation was quantified 72 hours later by MTT dye reduction, at which time cells were exposed for 4 hours MTT (Promega Corp.). Dye reduction was stopped by addition of a stop solution (Promega Corp.) and absorbance at 595λ was determined on a 96-well spectrophotometer plate reader.
(§3) IC50 values were calculated by curve-fitting the response of A^595 to various concentrations of the test agent; typically, seven concentrations separated by 0.5 log were employed, with triplicate wells at each concentration. For screening compound library plates, one or two concentrations (one well per concentration) were employed, and the % inhibition was calculated by the following formula: % inhibition=(control−test)[…](control−starvation) where
control=A^595 when VEGF is present without test agent
test=A^595 when VEGF is present with test agent
starvation=A^595 when VEGF and test agent are both absent.

HUVEC = HUVEC + albumin proliferation; assay type: cell-based; conditions: Homo sapiens, 72 h, with albumin
Description: as §2, §3

[3] = Human Liver Microsome (HLM) Assay; assay type: in vitro ADME; conditions: @0.5 h
Description: Compound metabolism in human liver microsomes was measured by LC-MS analytical assay procedures as follows. First, human liver microsomes (HLM) were thawed and diluted to 5 mg/mL with cold 100 mM potassium phosphate (KPO4) buffer. Appropriate amounts of KPO4 buffer, NADPH-regenerating solution (containing B-NADP, glucose-6-phosphate, glucose-6-phosphate dehydrogenase, and MgCl2), and HLM were preincubated in 13×100 mm glass tubes at 37 C. for 10 min. (3 tubes per test compound—triplicate). Test compound (5 µM final) was added to each tube to initiate reaction and was mixed by gentle vortexing, followed by incubation at 37° C. […] Samples were centrifuged at 4000 rpm for 20 min. to precipitate proteins and salt (Beckman Allegra 6KR, S/N ALK98DO6, #634). Supernatant was transferred to new 12×75 mm glass tubes and evaporated by Speed-Vac centrifugal vacuum evaporator. Samples were reconstituted in 200 μL 0.1% formic acid/acetonitrile (90/10) and vortexed vigorously to dissolve. The samples were then transferred to separate polypropylene microcentrifuge tubes and centrifuged at 14000×g for 10 min. (Fisher Micro 14, S/N M0017580). […]
The combined compound samples were injected into the LC-MS system, composed of a Hewlett-Packard HP 1100 diode array HPLC and a Micromass Quattro II triple quadruple mass spectrometer operating in positive electrospray SIR mode (programmed to scan specifically for the molecular ion of each test compound. Each test compound peak was integrated at each timepoint. […]

PDGFRβ = molecular target: T4, PDGFRβ (Homo sapiens, UniProt P09619); experiment: PAE-PDGFRβ Phosphorylation in PAE-PDGFRB Cells Assay; assay type: cell-based; conditions: PAE cells overexpressing human PDGFRβ; read-out: PAE PDGFR autophos IC50
T4 construct: expressed in transfected cells; host or cells: porcine aorta endothelial (PAE) cells
T4 sequence (P09619 33-1106): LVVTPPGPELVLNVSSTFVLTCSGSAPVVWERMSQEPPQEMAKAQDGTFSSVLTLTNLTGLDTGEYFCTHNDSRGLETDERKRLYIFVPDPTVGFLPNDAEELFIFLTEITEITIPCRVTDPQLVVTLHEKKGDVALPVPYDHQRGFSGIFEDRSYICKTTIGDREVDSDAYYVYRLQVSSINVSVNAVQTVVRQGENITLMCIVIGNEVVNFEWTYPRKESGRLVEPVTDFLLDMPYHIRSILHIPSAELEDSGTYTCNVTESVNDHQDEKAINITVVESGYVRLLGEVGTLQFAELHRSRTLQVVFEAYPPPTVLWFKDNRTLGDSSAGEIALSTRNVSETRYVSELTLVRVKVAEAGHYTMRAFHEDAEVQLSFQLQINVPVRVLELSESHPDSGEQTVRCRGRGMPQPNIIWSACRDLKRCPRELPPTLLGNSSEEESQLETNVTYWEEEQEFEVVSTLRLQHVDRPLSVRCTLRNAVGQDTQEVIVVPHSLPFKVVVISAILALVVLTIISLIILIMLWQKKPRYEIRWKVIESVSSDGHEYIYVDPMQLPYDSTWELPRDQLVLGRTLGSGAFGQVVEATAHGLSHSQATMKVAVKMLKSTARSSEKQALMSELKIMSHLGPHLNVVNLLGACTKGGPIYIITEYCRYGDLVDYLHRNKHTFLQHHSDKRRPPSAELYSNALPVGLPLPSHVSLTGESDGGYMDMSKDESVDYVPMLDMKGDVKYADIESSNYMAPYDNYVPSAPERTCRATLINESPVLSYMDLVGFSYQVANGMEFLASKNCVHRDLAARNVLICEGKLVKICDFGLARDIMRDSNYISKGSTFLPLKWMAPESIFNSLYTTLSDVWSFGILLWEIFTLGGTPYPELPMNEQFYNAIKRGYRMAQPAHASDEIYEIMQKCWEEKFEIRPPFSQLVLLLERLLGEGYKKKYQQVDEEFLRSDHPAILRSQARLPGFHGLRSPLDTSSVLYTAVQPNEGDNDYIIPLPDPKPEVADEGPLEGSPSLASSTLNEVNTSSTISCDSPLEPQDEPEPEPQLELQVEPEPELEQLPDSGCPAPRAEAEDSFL
Description: This assay determines the ability of a test compound to inhibit the autophosphorylation of PDGFRβ in porcine aorta endothelial (PAE)-PDGFRβ cells. PAE cells that overexpress human PDGFRβ were used in this assay. The cells were cultured in Ham's F12 media supplemented with 10% fetal bovine serum (FBS) and 400 ug/ml G418. Twenty thousands cells were seeded in each well of a 96-well plate in 50 μL of growth media and allowed to attach for 6 hours at 37° C. Cells were then exposed to the starvation media (Ham's F12 media supplemented with 0.1% FBS) for 16 hours. After the starvation period was over, 10 μL of test agent in 5% DMSO in starvation media were added to the test wells and 10 μL of the vehicle (5% DMSO in starvation media) were added into the control wells. The final DMSO concentration in each well was 0.5%. Plates were incubated at 37° C. for 1 hour and the cells were then stimulated with 1 μg/mL PDGF-BB (R & D System) in the presence of 2 mM Na3VO4 for 8 minutes. The cells were washed once with 1 mm Na3VO4 in HBSS and lysed by adding 50 μL per well of lysis buffer. One hundred μL of dilution buffer were then added to each well and the diluted cell lysate was transferred to a 96-well goat ant-rabbit coated plate (Pierce), which was pre-coated with Rabbit anti Human PDGFRβ antibody (Santa Cruz). The plates were incubated at room temperature for 2 hours and washed seven times with 1% Tween 20 in PBS. HRP-PY20 (Santa Cruz) was diluted and added to the plate for a 30-minute incubation. Plates were then washed again and TMB peroxidase substrate (Kirkegaard & Perry) was added for a 10-minute incubation. One hundred μL of 0.09 N H2SO4 was added into each well of the 96-well plate to stop the reaction. Phosphorylation status was assessed by spectrophotometer reading at 450 nm. IC50 values were calculated by curve fitting using a four-parameter analysis.

Row | SMILES | AUC (Mouse PK Assay; ip, intraperitoneal, read-out: Mouse pK, AUC, ip) [ng·h/mL] | AUC (Mouse PK Assay; oral, read-out: Mouse pK, AUC, po) [ng·h/mL] | inhibition at 0.05 µM [1] [%] | inhibition at 1 µM (LCK) [%] | inhibition at 1 µM (FGF-R1) [%] | pIC50 [2] | pIC50 (HUVEC) | % remaining (HLM) [3] | pIC50 (PDGFRβ)
1 | COC(=O)C(C(=O)OC)c1ccc(Cl)cc1[N+](=O)[O-] [Example 1(a), 2-(4-Chloro-2-nitro-phenyl)-malonic acid dimethyl ester] | 690 | 330 | – | – | – | – | – | – | –
2 | CC(C)ONC(=O)c1ccccc1Nc1ccc2c(/C=C/c3ccccn3)n[nH]c2c1 [Example 3(c), N-Isopropoxy-2-[3-((E)-2-pyridin-2-yl-vinyl)-1H-indazol-6-ylamino]-benzamide] | – | – | 91 | 9 | 83 | 9.37 | 8.04 | 46@0.5 h % | –
3 | Cn1cccc1C(=O)NNC(=O)c1ccccc1Nc1ccc2c(/C=C/c3ccccn3)n[nH]c2c1 [Example 3(f)] | – | – | 95 | 41 | 60 | – | < 7.00 | – | –
4 | Cc1ccnc(/C=C/c2n[nH]c3cc(Nc4ccccc4C(=O)NCc4ccncc4)ccc23)c1 [Example 38, 2-{3-[2-(4-Methyl-pyridin-2-yl)-vinyl]-1H-indazol6-ylamino}-N-pyridin-4-ylmethyl-benzamide] | – | – | 75 | – | – | – | 9.17 | – | 8.70
